The values that follow come from US9023826B2 (L'Oreal S.A., priority 2012, dated 2015).

This data set is described as follows: Solubility in water, with or without hydrotropes, at room temperature. Type of data set: physicochemical.

Turning to `Nc1ncnc2c1ncn2[C@@H]1O[C@H](CO)[C@@H](O)[C@H]1O` [Adenosine], the “stability of adenosine/hydrotropes solution in water on further dilution or concentration” value is “stable”. Further, the “concentration of stable clear solution obtained” value (5% nicotinamide and 5% caffeine in water) was 3 % (w/w).
